Data as given in the NIST ThermoML archive (doi:10.1016/j.jct.2006.06.009).
± gives the expanded uncertainty stated by the source. One block for each compound: values may come before it.

Legend:
[1] = xn = mol fraction of the nth substance listed; conditions: 308.15 K, 101 kPa, Liquid
[2] = 308.15 K; 101 kPa; Liquid

Compound: CNC(C)=O [N-methylacetamide] + ClC(Cl)=C(Cl)Cl
mass density ([1]; x1 = 0.0571): 1573.5 ± 2.3 kg/m3
viscosity ([1]; x1 = 0.0571): 0.801 ± 0.014 mPa·s
mass density ([1]; x1 = 0.2569): 1463.9 ± 2.1 kg/m3
viscosity ([1]; x1 = 0.2569): 1.541 ± 0.021 mPa·s
mass density ([1]; x1 = 0.3691): 1396.5 ± 2 kg/m3
viscosity ([1]; x1 = 0.3691): 1.895 ± 0.024 mPa·s
mass density ([1]; x1 = 0.4749): 1330.8 ± 1.8 kg/m3
viscosity ([1]; x1 = 0.4749): 2.195 ± 0.027 mPa·s
mass density ([1]; x1 = 0.5719): 1268.3 ± 1.7 kg/m3
viscosity ([1]; x1 = 0.5719): 2.411 ± 0.03 mPa·s
mass density ([1]; x1 = 0.6637): 1206.2 ± 1.6 kg/m3
viscosity ([1]; x1 = 0.6637): 2.61 ± 0.032 mPa·s
mass density ([1]; x1 = 0.7039): 1178 ± 1.6 kg/m3
viscosity ([1]; x1 = 0.7039): 2.696 ± 0.033 mPa·s
mass density ([1]; x1 = 0.8385): 1078.2 ± 1.4 kg/m3
viscosity ([1]; x1 = 0.8385): 2.981 ± 0.037 mPa·s
mass density ([1]; x1 = 0.9666): 974.6 ± 1.2 kg/m3
viscosity ([1]; x1 = 0.9666): 3.245 ± 0.04 mPa·s
mass density ([1]; x1 = 1): 945.9 ± 1.2 kg/m3
viscosity ([1]; x1 = 1): 3.312 ± 0.04 mPa·s

Compound: ClC(Cl)=C(Cl)Cl [tetrachloroethene] + CNC(C)=O
mass density ([1]; x2 = 0): 1599.2 ± 2.3 kg/m3
viscosity ([1]; x2 = 0): 0.723 ± 0.014 mPa·s

Compound: CNC(C)=O [N-methylacetamide]
mass density [2]: 945.9 ± 1.2 kg/m3
viscosity [2]: 3.312 ± 0.04 mPa·s

Compound: ClC(Cl)C(Cl)Cl [1,1,2,2-tetrachloroethane] + CNC(C)=O
mass density ([1]; x2 = 0): 1572.4 ± 2.9 kg/m3
viscosity ([1]; x2 = 0): 1.334 ± 0.033 mPa·s

mass density ([1]; x2 = 0): 1230.8 ± 1.7 kg/m3
viscosity ([1]; x2 = 0): 0.646 ± 0.013 mPa·s
Compound: ClCCCl [1,2-dichloroethane] + CNC(C)=O

Compound: ClC(Cl)C(Cl)Cl [1,1,2,2-tetrachloroethane]
mass density [2]: 1572.4 ± 2.9 kg/m3
viscosity [2]: 1.334 ± 0.033 mPa·s

Compound: ClCC(Cl)Cl [1,1,2-trichloroethane]
mass density [2]: 1416.1 ± 3.2 kg/m3
viscosity [2]: 0.903 ± 0.017 mPa·s

mass density [2]: 1230.8 ± 1.7 kg/m3
viscosity [2]: 0.646 ± 0.013 mPa·s
Compound: ClCCCl [1,2-dichloroethane]

Compound: ClCC(Cl)Cl [1,1,2-trichloroethane] + CNC(C)=O
mass density ([1]; x2 = 0): 1416.1 ± 3.2 kg/m3
viscosity ([1]; x2 = 0): 0.903 ± 0.017 mPa·s
mass density ([1]; x2 = 0.0706): 1390.4 ± 3 kg/m3
viscosity ([1]; x2 = 0.0706): 1.003 ± 0.018 mPa·s
mass density ([1]; x2 = 0.2356): 1324.2 ± 2.6 kg/m3
viscosity ([1]; x2 = 0.2356): 1.365 ± 0.022 mPa·s
mass density ([1]; x2 = 0.3484): 1276 ± 2.3 kg/m3
viscosity ([1]; x2 = 0.3484): 1.771 ± 0.026 mPa·s
mass density ([1]; x2 = 0.452): 1229.9 ± 2.1 kg/m3
viscosity ([1]; x2 = 0.452): 2.18 ± 0.03 mPa·s
mass density ([1]; x2 = 0.5461): 1186.3 ± 1.9 kg/m3
viscosity ([1]; x2 = 0.5461): 2.537 ± 0.034 mPa·s
mass density ([1]; x2 = 0.643): 1139.1 ± 1.7 kg/m3
viscosity ([1]; x2 = 0.643): 2.88 ± 0.038 mPa·s
mass density ([1]; x2 = 0.7345): 1092.7 ± 1.6 kg/m3
viscosity ([1]; x2 = 0.7345): 3.105 ± 0.04 mPa·s
mass density ([1]; x2 = 0.8235): 1045.8 ± 1.4 kg/m3
viscosity ([1]; x2 = 0.8235): 3.249 ± 0.041 mPa·s
mass density ([1]; x2 = 0.9497): 975.3 ± 1.3 kg/m3
viscosity ([1]; x2 = 0.9497): 3.345 ± 0.041 mPa·s

Compound: ClC(Cl)=C(Cl)Cl [tetrachloroethene]
mass density [2]: 1599.2 ± 2.3 kg/m3
viscosity [2]: 0.723 ± 0.014 mPa·s

Compound: CNC(C)=O [N-methylacetamide] + ClC(Cl)C(Cl)Cl
mass density ([1]; x1 = 0.0621): 1545.5 ± 2.8 kg/m3
viscosity ([1]; x1 = 0.0621): 1.499 ± 0.037 mPa·s
mass density ([1]; x1 = 0.2627): 1450.5 ± 2.4 kg/m3
viscosity ([1]; x1 = 0.2627): 2.226 ± 0.053 mPa·s
mass density ([1]; x1 = 0.3728): 1393 ± 2.2 kg/m3
viscosity ([1]; x1 = 0.3728): 2.726 ± 0.064 mPa·s
mass density ([1]; x1 = 0.4796): 1331.6 ± 2 kg/m3
viscosity ([1]; x1 = 0.4796): 3.398 ± 0.078 mPa·s
mass density ([1]; x1 = 0.5797): 1268.9 ± 1.9 kg/m3
viscosity ([1]; x1 = 0.5797): 3.936 ± 0.09 mPa·s
mass density ([1]; x1 = 0.6722): 1206.5 ± 1.7 kg/m3
viscosity ([1]; x1 = 0.6722): 4.291 ± 0.097 mPa·s
mass density ([1]; x1 = 0.7594): 1143.7 ± 1.6 kg/m3
viscosity ([1]; x1 = 0.7594): 4.404 ± 0.099 mPa·s
mass density ([1]; x1 = 0.8413): 1080.7 ± 1.5 kg/m3
viscosity ([1]; x1 = 0.8413): 4.036 ± 0.091 mPa·s
mass density ([1]; x1 = 0.9679): 974.8 ± 1.2 kg/m3
viscosity ([1]; x1 = 0.9679): 3.533 ± 0.08 mPa·s
mass density ([1]; x1 = 1): 945.9 ± 1.2 kg/m3
viscosity ([1]; x1 = 1): 3.312 ± 0.075 mPa·s

Compound: ClC=C(Cl)Cl [trichloroethene]
mass density [2]: 1438.5 ± 2 kg/m3
viscosity [2]: 0.46 ± 0.012 mPa·s

Compound: CNC(C)=O [N-methylacetamide] + ClC=C(Cl)Cl
mass density ([1]; x1 = 0.0514): 1417.9 ± 2 kg/m3
viscosity ([1]; x1 = 0.0514): 0.564 ± 0.013 mPa·s
mass density ([1]; x1 = 0.2353): 1340.4 ± 1.9 kg/m3
viscosity ([1]; x1 = 0.2353): 1.015 ± 0.016 mPa·s
mass density ([1]; x1 = 0.3404): 1293.3 ± 1.8 kg/m3
viscosity ([1]; x1 = 0.3404): 1.291 ± 0.018 mPa·s
mass density ([1]; x1 = 0.4437): 1244.6 ± 1.7 kg/m3
viscosity ([1]; x1 = 0.4437): 1.578 ± 0.021 mPa·s
mass density ([1]; x1 = 0.5419): 1196.4 ± 1.6 kg/m3
viscosity ([1]; x1 = 0.5419): 1.856 ± 0.024 mPa·s
mass density ([1]; x1 = 0.6357): 1148.5 ± 1.5 kg/m3
viscosity ([1]; x1 = 0.6357): 2.15 ± 0.027 mPa·s
mass density ([1]; x1 = 0.7288): 1099.4 ± 1.4 kg/m3
viscosity ([1]; x1 = 0.7288): 2.45 ± 0.03 mPa·s
mass density ([1]; x1 = 0.8196): 1049.9 ± 1.4 kg/m3
viscosity ([1]; x1 = 0.8196): 2.74 ± 0.034 mPa·s
mass density ([1]; x1 = 0.9692): 964.4 ± 1.2 kg/m3
viscosity ([1]; x1 = 0.9692): 3.215 ± 0.039 mPa·s
mass density ([1]; x1 = 1): 945.9 ± 1.2 kg/m3
viscosity ([1]; x1 = 1): 3.312 ± 0.04 mPa·s

Compound: CNC(C)=O [N-methylacetamide] + ClCCCl
mass density ([1]; x1 = 0.063): 1213.8 ± 1.6 kg/m3
viscosity ([1]; x1 = 0.063): 0.705 ± 0.014 mPa·s
mass density ([1]; x1 = 0.134): 1194.7 ± 1.6 kg/m3
viscosity ([1]; x1 = 0.134): 0.785 ± 0.014 mPa·s
mass density ([1]; x1 = 0.2632): 1159.1 ± 1.5 kg/m3
viscosity ([1]; x1 = 0.2632): 1.024 ± 0.016 mPa·s
mass density ([1]; x1 = 0.3875): 1124.3 ± 1.5 kg/m3
viscosity ([1]; x1 = 0.3875): 1.342 ± 0.019 mPa·s
mass density ([1]; x1 = 0.4442): 1108.2 ± 1.4 kg/m3
viscosity ([1]; x1 = 0.4442): 1.5 ± 0.02 mPa·s
mass density ([1]; x1 = 0.5064): 1090.5 ± 1.4 kg/m3
viscosity ([1]; x1 = 0.5064): 1.694 ± 0.022 mPa·s
mass density ([1]; x1 = 0.6863): 1038.5 ± 1.3 kg/m3
viscosity ([1]; x1 = 0.6863): 2.245 ± 0.028 mPa·s
mass density ([1]; x1 = 0.807): 1003.1 ± 1.3 kg/m3
viscosity ([1]; x1 = 0.807): 2.651 ± 0.033 mPa·s
mass density ([1]; x1 = 0.931): 966.5 ± 1.2 kg/m3
viscosity ([1]; x1 = 0.931): 3.083 ± 0.038 mPa·s
mass density ([1]; x1 = 1): 945.9 ± 1.2 kg/m3
viscosity ([1]; x1 = 1): 3.312 ± 0.04 mPa·s

Compound: ClC=C(Cl)Cl [trichloroethene] + CNC(C)=O
mass density ([1]; x2 = 0): 1438.5 ± 2 kg/m3
viscosity ([1]; x2 = 0): 0.46 ± 0.012 mPa·s

Compound: CNC(C)=O [N-methylacetamide] + ClCC(Cl)Cl
mass density ([1]; x1 = 1): 945.9 ± 1.2 kg/m3
viscosity ([1]; x1 = 1): 3.312 ± 0.04 mPa·s
